# Laboratory results from patent US20110158980A1, “METHODS TO TREAT AND SCREEN FOR AGENTS TO TREAT OBESITY” (TRUSTEES OF TUFTS COLLEGE, priority 2008, published 2011).
# What was measured:
# Format in all cases: cell-based
# 3T3-L1 adipocytes [1] = assay: Amino acid uptake or output of adipocytes (HPLC of spent medium); details: day 12 post-induction, positive value = uptake
# Method: (§1) 3T3-L1 preadipocytes were plated onto 24-well plates and expanded in preadipocyte growth medium consisting of DMEM supplemented with calf serum (10% v/v), penicillin and streptomycin. Medium was replenished every other day. Two days post-confluence, the cells were induced to differentiate using an adipogenic cocktail (1 μg/ml insulin, 0.5 mM isobutylmethylxanthine, and 1 μM dexamethasone) added to a basal medium (DMEM with 10% fetal bovine serum and penicillin/streptomycin). After 48 hrs, the first medium was replaced with a second induction medium consisting of the basal adipocyte medium supplemented with only insulin. […] This basal medium was replenished every other day during the remainder of the culture experiments.
# (§2) Metabolite measurements were performed both on cell lysates and spent medium samples as described previously (Si Y, Yoon J, Lee K. American journal of physiology 2007; 292:E1637-46). Cells were lysed in situ with an 0.1% SDS buffer and sonicated. Immediately after collection, the spent medium samples were cleaned of cell debris by a brief centrifugation step. Free glycerol, TG and free fatty acids (FFAs) were measured using enzymatic assay kits (SIGMA™). Glucose and lactate concentrations were measured using the methods of Trinder (Trinder P. J Clin Pathol 1969; 22:158-61) and Loomis (Loomis M E. J Lab Clin Med 1961; 57:966-9), respectively. Amino acids were quantified by HPLC using fluorescence-based detection following pre-column derivatization of primary or secondary amines with 6-aminoquinolyl-N-hydroxysuccinimidyl-carbamate (Cohen S A, De Antonis K M. J Chromatogr A 1994; 661:25-34). All metabolite data were normalized by the corresponding cell sample DNA content, which was determined with a fluorescence-based assay using the Hoechst dye.
# 3T3-L1 adipocytes [2] = assay: Metabolite assays (TG, FFA, glucose, lactate, glycerol) on cell lysates and spent medium; details: day 12 post-induction
# Method: as §1, §2
# 3T3-L1 adipocytes [3] = assay: Oxygen uptake rate by fiber-optic microsensor; details: phenylacetate at the higher concentration (10 mM); day 12 post-induction; FIG. 2F
# Method: The dissolved oxygen in the culture medium was measured using a needle-type fiber-optic microsensor (MicroxTX3, Presens, Regensburg, Germany). The concentration data were related to the oxygen uptake rate (OUR) using the following diffusion-reaction model:
# where c0 and hb are, respectively, the oxygen concentration at medium surface and height of the medium in the culture well. The bottom of the culture plate (and cell monolayer) is at z=−hb. Integrating equation (1) and applying the boundary conditions we obtain: […]
# where hm and cm are, respectively, the distance between the probe and the medium surface and the measured oxygen concentration in the medium at the probe depth. The oxygen uptake rate was calculated by dividing the flux JO2 by the cell density. The measured oxygen uptake rate was used for relative comparisons between the treatment groups and not used for MFA in order to independently confirm the calculated oxygen uptake rate.
structure (smiles),measurement,setting,value
O=C(O)Cc1ccccc1 [phenylacetate],ALA uptake or output,3T3-L1 adipocytes [1]; 5 mM PA,0.4 ± 0.1 mmol/g-DNA/2 days
same,ASN uptake or output,3T3-L1 adipocytes [1]; 5 mM PA,−4.6 ± 0.2 mmol/g-DNA/2 days
same,ASP uptake or output,3T3-L1 adipocytes [1]; 5 mM PA,0.0 ± 0.0 mmol/g-DNA/2 days
same,GLN uptake or output,3T3-L1 adipocytes [1]; 5 mM PA,−7.9 ± 0.6 mmol/g-DNA/2 days
same,GLU uptake or output,3T3-L1 adipocytes [1]; 5 mM PA,0.3 ± 0.0 mmol/g-DNA/2 days
same,GLY uptake or output,3T3-L1 adipocytes [1]; 5 mM PA,−7.3 ± 0.2 mmol/g-DNA/2 days
same,HIS uptake or output,3T3-L1 adipocytes [1]; 5 mM PA,−0.1 ± 0.1 mmol/g-DNA/2 days
same,ILE uptake or output,3T3-L1 adipocytes [1]; 5 mM PA,8.1 ± 0.3 mmol/g-DNA/2 days
same,LEU uptake or output,3T3-L1 adipocytes [1]; 5 mM PA,8.6 ± 0.3 mmol/g-DNA/2 days
same,LYS uptake or output,3T3-L1 adipocytes [1]; 5 mM PA,−1.8 ± 0.1 mmol/g-DNA/2 days
same,MET uptake or output,3T3-L1 adipocytes [1]; 5 mM PA,0.1 ± 0.1 mmol/g-DNA/2 days
same,PHE uptake or output,3T3-L1 adipocytes [1]; 5 mM PA,−0.1 ± 0.1 mmol/g-DNA/2 days
same,PRO uptake or output,3T3-L1 adipocytes [1]; 5 mM PA,−1.4 ± 0.0 mmol/g-DNA/2 days
same,SER uptake or output,3T3-L1 adipocytes [1]; 5 mM PA,4.5 ± 0.2 mmol/g-DNA/2 days
same,THR uptake or output,3T3-L1 adipocytes [1]; 5 mM PA,−1.2 ± 0.1^ mmol/g-DNA/2 days
same,TYR uptake or output,3T3-L1 adipocytes [1]; 5 mM PA,0.1 ± 0.2 mmol/g-DNA/2 days
same,VAL uptake or output,3T3-L1 adipocytes [1]; 5 mM PA,5.1 ± 0.4 mmol/g-DNA/2 days
same,ALA uptake or output,3T3-L1 adipocytes [1]; 10 mM PA,−0.5 ± 0.1 mmol/g-DNA/2 days
same,ASN uptake or output,3T3-L1 adipocytes [1]; 10 mM PA,−5.9 ± 0.4 mmol/g-DNA/2 days
same,ASP uptake or output,3T3-L1 adipocytes [1]; 10 mM PA,0.0 ± 0.0 mmol/g-DNA/2 days
same,GLN uptake or output,3T3-L1 adipocytes [1]; 10 mM PA,2.6 ± 2.9 mmol/g-DNA/2 days
same,GLU uptake or output,3T3-L1 adipocytes [1]; 10 mM PA,0.3 ± 0.0 mmol/g-DNA/2 days
same,GLY uptake or output,3T3-L1 adipocytes [1]; 10 mM PA,−7.9 ± 0.9^ mmol/g-DNA/2 days
same,HIS uptake or output,3T3-L1 adipocytes [1]; 10 mM PA,−0.1 ± 0.2 mmol/g-DNA/2 days
same,ILE uptake or output,3T3-L1 adipocytes [1]; 10 mM PA,7.5 ± 0.2 mmol/g-DNA/2 days
same,LEU uptake or output,3T3-L1 adipocytes [1]; 10 mM PA,7.9 ± 0.2 mmol/g-DNA/2 days
same,LYS uptake or output,3T3-L1 adipocytes [1]; 10 mM PA,−2.0 ± 0.2 mmol/g-DNA/2 days
same,MET uptake or output,3T3-L1 adipocytes [1]; 10 mM PA,0.1 ± 0.2 mmol/g-DNA/2 days
same,PHE uptake or output,3T3-L1 adipocytes [1]; 10 mM PA,−0.1 ± 0.4 mmol/g-DNA/2 days
same,PRO uptake or output,3T3-L1 adipocytes [1]; 10 mM PA,−2.1 ± 0.2 mmol/g-DNA/2 days
same,SER uptake or output,3T3-L1 adipocytes [1]; 10 mM PA,4.6 ± 0.5 mmol/g-DNA/2 days
same,THR uptake or output,3T3-L1 adipocytes [1]; 10 mM PA,−1.4 ± 0.4^ mmol/g-DNA/2 days
same,TYR uptake or output,3T3-L1 adipocytes [1]; 10 mM PA,−0.0 ± 0.4 mmol/g-DNA/2 days
same,VAL uptake or output,3T3-L1 adipocytes [1]; 10 mM PA,3.8 ± 0.4 mmol/g-DNA/2 days
same,Increase of glucose uptake,3T3-L1 adipocytes [2]; 5 mM phenylacetate,38%
same,Increase of glycerol output,3T3-L1 adipocytes [2]; 5 mM phenylacetate,1.2 fold
same,Increase of lactate output,3T3-L1 adipocytes [2]; 5 mM phenylacetate,more than 2 fold
same,Reduction of intracellular free fatty acid concentration,3T3-L1 adipocytes [2]; 5 mM phenylacetate,9%
same,Increase of glucose uptake,3T3-L1 adipocytes [2]; 10 mM phenylacetate,28%
same,Increase of glycerol output,3T3-L1 adipocytes [2]; 10 mM phenylacetate,1.4 fold
same,Increase of lactate output,3T3-L1 adipocytes [2]; 10 mM phenylacetate,more than 2 fold
same,Reduction of intracellular free fatty acid concentration,3T3-L1 adipocytes [2]; 10 mM phenylacetate,17%
same,Reduction of oxygen consumption,3T3-L1 adipocytes [3],25%
